Reference: the supplement of paper PMC10307832

Columns and labels:
Test in all cases: relative viability (nuclei count vs DMSO), 5 days (fraction); higher = more cells survive
NCI-H1944 = test system: NCI-H1944
Summary of the method: (§1)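 Relative viability was taken as the ratio of nuclei in treated wells to nuclei in vehicle wells. Lung cancer cell lines in 1536-well plates received compounds by pin tool one day after seeding, either one drug alone or a fixed anchor-drug dose plus five library-drug doses (not always all listed) in √10 steps. Nuclei were counted on 4× images after 5 days of treatment, and values are medians of duplicate plates.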

LU99A = test system: LU99A
Summary of the method: as §1

NCI-H1651 = test system: NCI-H1651
Summary of the method: as §1

NCI-H1734 = test system: NCI-H1734
Summary of the method: as §1

UMC-11 = test system: UMC-11
Summary of the method: as §1

NCI-H2228 = test system: NCI-H2228
Summary of the method: as §1

NCI-H460 = test system: NCI-H460
Summary of the method: as §1

HCC-366 = test system: HCC-366
Summary of the method: as §1

NCI-H3122 = test system: NCI-H3122
Summary of the method: as §1

CAL-12T = test system: CAL-12T
Summary of the method: as §1

NCI-H2170 = test system: NCI-H2170
Summary of the method: as §1

RERF-LC-KJ = test system: RERF-LC-KJ
Summary of the method: as §1

PC-3 [JPC-3] = test system: PC-3 [JPC-3]
Summary of the method: as §1

LC-2-ad = test system: LC-2-ad
Summary of the method: as §1

NCI-H1755 = test system: NCI-H1755
Summary of the method: as §1

NCI-H2405 = test system: NCI-H2405
Summary of the method: as §1

ChaGo-K-1 = test system: ChaGo-K-1
Summary of the method: as §1

HCC-78 = test system: HCC-78
Summary of the method: as §1

ABC-1 = test system: ABC-1
Summary of the method: as §1

LOU-NH91 = test system: LOU-NH91
Summary of the method: as §1

NCI-H1793 = test system: NCI-H1793
Summary of the method: as §1

NCI-H1395 = test system: NCI-H1395
Summary of the method: as §1

NCI-H2087 = test system: NCI-H2087
Summary of the method: as §1

With C=C1C(=O)O[C@@H](CCCCCCCC)[C@@H]1C(=O)O [C-75] + Cc1cc(Nc2cc(N3CCN(C)CC3)nc(Sc3ccc(NC(=O)C4CC4)cc3)n2)n[nH]1 [Tozasertib] (partner 0.1 µM) the relative viability (NCI-H1944; first compound 0.08 µM) was 0.256, the relative viability (NCI-H1944; first compound 0.253 µM) was 0.235 and the relative viability (NCI-H1944; first compound 0.8 µM) was 0.243. It also gave a relative viability (NCI-H1944; first compound 8 µM) of 0.246, a relative viability (LU99A; first compound 0.08 µM) of 0.272 and a relative viability (LU99A; first compound 0.253 µM) of 0.251. For the same compound, the relative viability (LU99A; first compound 0.8 µM) was 0.253, the relative viability (LU99A; first compound 2.53 µM) was 0.283 and the relative viability (LU99A; first compound 8 µM) was 0.288. For the same compound, the relative viability (NCI-H1651; first compound 0.08 µM) was 0.694, the relative viability (NCI-H1651; first compound 0.253 µM) was 0.995 and the relative viability (NCI-H1651; first compound 0.8 µM) was 0.706. The relative viability (NCI-H1651; first compound 2.53 µM) was 0.688, the relative viability (NCI-H1651; first compound 8 µM) was 0.682 and the relative viability (NCI-H1734; first compound 0.08 µM) was 0.286. The relative viability (NCI-H1734; first compound 0.253 µM) was 0.225, the relative viability (NCI-H1734; first compound 0.8 µM) was 0.262 and the relative viability (NCI-H1734; first compound 2.53 µM) was 0.198. It also gave a relative viability (NCI-H1734; first compound 8 µM) of 0.235, a relative viability (UMC-11; first compound 0.08 µM) of 0.213 and a relative viability (UMC-11; first compound 0.253 µM) of 0.202. The relative viability (UMC-11; first compound 0.8 µM) was 0.209, the relative viability (UMC-11; first compound 2.53 µM) was 0.161 and the relative viability (UMC-11; first compound 8 µM) was 0.227. The relative viability (NCI-H2228; first compound 0.08 µM) was 0.29, the relative viability (NCI-H2228; first compound 0.253 µM) was 0.344 and the relative viability (NCI-H2228; first compound 0.8 µM) was 0.26. It also gave a relative viability (NCI-H2228; first compound 2.53 µM) of 0.25, a relative viability (NCI-H2228; first compound 8 µM) of 0.269 and a relative viability (NCI-H460; first compound 0.08 µM) of 0.405. It also gave a relative viability (NCI-H460; first compound 0.253 µM) of 0.798, a relative viability (NCI-H460; first compound 0.8 µM) of 0.391 and a relative viability (NCI-H460; first compound 2.53 µM) of 0.657. The relative viability (NCI-H460; first compound 8 µM) was 0.449, the relative viability (HCC-366; first compound 0.08 µM) was 0.197 and the relative viability (HCC-366; first compound 0.253 µM) was 0.151. It also gave a relative viability (HCC-366; first compound 0.8 µM) of 0.158, a relative viability (HCC-366; first compound 8 µM) of 0.115 and a relative viability (NCI-H3122; first compound 0.08 µM) of 0.414. The relative viability (NCI-H3122; first compound 0.253 µM) was 0.514, the relative viability (NCI-H3122; first compound 0.8 µM) was 0.403 and the relative viability (NCI-H3122; first compound 8 µM) was 0.518. The relative viability (CAL-12T; first compound 0.08 µM) was 0.281, the relative viability (CAL-12T; first compound 0.253 µM) was 0.423 and the relative viability (CAL-12T; first compound 0.8 µM) was 0.312. The relative viability (CAL-12T; first compound 2.53 µM) was 0.281, the relative viability (CAL-12T; first compound 8 µM) was 0.345 and the relative viability (NCI-H2170; first compound 0.08 µM) was 0.682. The relative viability (NCI-H2170; first compound 0.253 µM) was 0.826, the relative viability (NCI-H2170; first compound 0.8 µM) was 0.796 and the relative viability (NCI-H2170; first compound 2.53 µM) was 0.291. For the same compound, the relative viability (NCI-H2170; first compound 8 µM) was 0.861, the relative viability (RERF-LC-KJ; first compound 0.08 µM) was 0.561 and the relative viability (RERF-LC-KJ; first compound 0.253 µM) was 0.568. It also gave a relative viability (RERF-LC-KJ; first compound 0.8 µM) of 0.557, a relative viability (RERF-LC-KJ; first compound 2.53 µM) of 0.493 and a relative viability (RERF-LC-KJ; first compound 8 µM) of 0.536. For the same compound, the relative viability (PC-3 [JPC-3]; first compound 0.08 µM) was 0.902, the relative viability (PC-3 [JPC-3]; first compound 0.253 µM) was 0.921 and the relative viability (PC-3 [JPC-3]; first compound 0.8 µM) was 0.896. It also gave a relative viability (PC-3 [JPC-3]; first compound 2.53 µM) of 0.858, a relative viability (PC-3 [JPC-3]; first compound 8 µM) of 0.992 and a relative viability (LC-2-ad; first compound 0.08 µM) of 0.515. For the same compound, the relative viability (LC-2-ad; first compound 0.253 µM) was 0.503, the relative viability (LC-2-ad; first compound 0.8 µM) was 0.443 and the relative viability (LC-2-ad; first compound 2.53 µM) was 0.418. For the same compound, the relative viability (LC-2-ad; first compound 8 µM) was 0.399, the relative viability (NCI-H1755; first compound 0.08 µM) was 0.568 and the relative viability (NCI-H1755; first compound 0.253 µM) was 0.638. It also gave a relative viability (NCI-H1755; first compound 0.8 µM) of 0.552, a relative viability (NCI-H1755; first compound 2.53 µM) of 0.512 and a relative viability (NCI-H1755; first compound 8 µM) of 0.572. The relative viability (NCI-H2405; first compound 0.08 µM) was 0.747, the relative viability (NCI-H2405; first compound 0.253 µM) was 0.683 and the relative viability (NCI-H2405; first compound 0.8 µM) was 0.756. It also gave a relative viability (NCI-H2405; first compound 2.53 µM) of 0.772, a relative viability (NCI-H2405; first compound 8 µM) of 0.81 and a relative viability (ChaGo-K-1; first compound 0.08 µM) of 0.215. It also gave a relative viability (ChaGo-K-1; first compound 0.253 µM) of 0.223, a relative viability (ChaGo-K-1; first compound 0.8 µM) of 0.196 and a relative viability (ChaGo-K-1; first compound 2.53 µM) of 0.195. The relative viability (ChaGo-K-1; first compound 8 µM) was 0.231, the relative viability (HCC-78; first compound 0.08 µM) was 0.431 and the relative viability (HCC-78; first compound 0.253 µM) was 0.505. For the same compound, the relative viability (HCC-78; first compound 0.8 µM) was 0.458, the relative viability (HCC-78; first compound 2.53 µM) was 1.28 and the relative viability (HCC-78; first compound 8 µM) was 0.444. It also gave a relative viability (ABC-1; first compound 0.08 µM) of 0.137, a relative viability (ABC-1; first compound 0.253 µM) of 0.163 and a relative viability (ABC-1; first compound 0.8 µM) of 0.198. The relative viability (ABC-1; first compound 2.53 µM) was 0.173, the relative viability (ABC-1; first compound 8 µM) was 0.183 and the relative viability (LOU-NH91; first compound 0.08 µM) was 0.694. It also gave a relative viability (LOU-NH91; first compound 0.253 µM) of 0.561, a relative viability (LOU-NH91; first compound 0.8 µM) of 0.597 and a relative viability (LOU-NH91; first compound 2.53 µM) of 0.495. The relative viability (LOU-NH91; first compound 8 µM) was 0.642, the relative viability (NCI-H1793; first compound 0.08 µM) was 0.306 and the relative viability (NCI-H1793; first compound 0.253 µM) was 0.315. The relative viability (NCI-H1793; first compound 0.8 µM) was 0.344, the relative viability (NCI-H1793; first compound 2.53 µM) was 0.258 and the relative viability (NCI-H1793; first compound 8 µM) was 0.335. The relative viability (NCI-H1395; first compound 0.08 µM) was 0.73, the relative viability (NCI-H1395; first compound 0.253 µM) was 0.732 and the relative viability (NCI-H1395; first compound 0.8 µM) was 0.803. For the same compound, the relative viability (NCI-H1395; first compound 2.53 µM) was 0.669, the relative viability (NCI-H1395; first compound 8 µM) was 0.795 and the relative viability (NCI-H2087; first compound 0.08 µM) was 0.245. It also gave a relative viability (NCI-H2087; first compound 0.253 µM) of 0.294, a relative viability (NCI-H2087; first compound 0.8 µM) of 0.179 and a relative viability (NCI-H2087; first compound 2.53 µM) of 0.228. For the same compound, the relative viability (NCI-H2087; first compound 8 µM) was 0.305.
